Data: paper PMC5750218, “Protein-inspired antibiotics active against vancomycin- and daptomycin-resistant bacteria” (Nature Communications, 2018)
Converted amounts (≈) assume the structure as drawn.

Columns and labels:
[1] = Cytotoxicity MTT assay; type: cell-based, human; details: human
Method in brief: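 HepG2 and HEK293 cells, 1.5 × 10^4 per well in DMEM with 1% FBS, were allowed to attach for 24 h, then exposed 24 h at 37 °C to compounds at 100 µM to 0.046 µM in threefold steps. MTT (0.4 mg mL^−1) was added for 2 h, and formazan in DMSO was read at 570 nm. Viability is given as percent of control, corrected for a positive control.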

[2] = system: Methicillin-resistant S. aureus ATCC 43300; test: microbe, parasite or virus in culture
Method in brief: (§1)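 Overnight cultures in MHB were diluted 40-fold and regrown 2–3 h at 37 °C, then exposed to twofold compound dilutions (8 to 0.003 µg mL^−1) for 24 h at 37 °C. The lowest concentration without visible growth was recorded as the MIC.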

[3] = system: Vancomycin-intermediate S. aureus NRS1; test: microbe, parasite or virus in culture; details: Vancomycin-intermediate NRS1
Method in brief: as §1

[4] = system: Multi-drug-resistant S. pneumoniae ATCC 700677; test: microbe, parasite or virus in culture; details: ATCC 700677
Method in brief: as §1

[5] = system: Vancomycin-resistant S. aureus NARSA VRS4; test: microbe, parasite or virus in culture; type: cell-based, Staphylococcus aureus; details: Vancomycin-resistant NARSA VRS4
[6] = system: Vancomycin-resistant (VanA) Enterococcus faecium ATCC 51559; test: microbe, parasite or virus in culture; details: ATCC 51559
Method in brief: as §1

SMILES	CC50 at 24 h [1] [µM]	MIC MRSA ([2]; ATCC 43300, 24 h) [µg/mL]	MIC VISA [3] [µg/mL]	MIC MDR S.P. [4] [µg/mL]	MIC VRSA [5] [µg/mL]	MIC MRSA ([2]; S. aureus ATCC 43300, NBS plates, MHB, 24 h, substance alone) [µg/mL]	MIC VRE [6] [µg/mL]
CCCCCCCCCCC(=O)N[C@@H](CCCCN)C(=O)N[C@@H](CCCCN)C(=O)N[C@@H](CCCCN)C(=O)N[C@@H](CCCCNC(=O)[C@H]1NC(=O)[C@H]2NC(=O)[C@H](NC(=O)[C@@H]3NC(=O)[C@H](CC(N)=O)NC(=O)[C@H](NC(=O)[C@@H](CC(C)C)NC)[C@H](O)c4ccc(c(Cl)c4)Oc4cc3cc(c4O[C@@H]3O[C@H](CO)[C@@H](O)[C@H](O)[C@H]3O[C@H]3C[C@](C)(N)[C@H](O)[C@H](C)O3)Oc3ccc(cc3Cl)[C@H]2O)c2ccc(O)c(c2)-c2c(O)cc(O)cc21)C(=O)O [Compound 18, nC10CO-KKK-K(Vancomycin)-OH]	108	0.045 (≈ 0.0211 µM)	0.5 (≈ 0.235 µM)	0.06 (≈ 0.0282 µM)	0.5 (≈ 0.235 µM)		
CCCCCCCCCCC(=O)N[C@@H](CCCCN)C(=O)N[C@@H](CCCCN)C(=O)N[C@@H](CCCCNC(=O)[C@H]1NC(=O)[C@H]2NC(=O)[C@H](NC(=O)[C@@H]3NC(=O)[C@H](CC(N)=O)NC(=O)[C@H](NC(=O)[C@@H](CC(C)C)NC)[C@H](O)c4ccc(c(Cl)c4)Oc4cc3cc(c4O[C@@H]3O[C@H](CO)[C@@H](O)[C@H](O)[C@H]3O[C@H]3C[C@](C)(N)[C@H](O)[C@H](C)O3)Oc3ccc(cc3Cl)[C@H]2O)c2ccc(O)c(c2)-c2c(O)cc(O)cc21)C(N)=O [Compound 21, nC10CO-KK-K(Vancomycin)-NH2]	113		0.06 (≈ 0.03 µM)	0.015 (≈ 0.0075 µM)		0.007 (≈ 0.0035 µM)	2 (≈ 0.999 µM)
